The values below come from US9884821B2, “N1-cyclic amine-N5-substituted biguanide derivatives, methods of preparing the same and pharmaceutical composition comprising the same” (IMMUNOMET THERAPEUTICS INC., priority 2013, dated 2018).

One test relates to AMPK. As to the kind of experiment: AMPK activation effect (AMPK [pT172] ELISA) in MCF7 cells. The test is classed as cell-based, human. The note with it: 24 hours; for AMPK activation effect (%) 10 μM / AMPK activation effect (%) 50 μM / AMPK activation effect (%) 5 μM: AMPKα Thr172 phosphorylation relative to untreated cells; for AC150: concentration at which AMPK activation reached 150%. Here is the method:
ELISA kit (Invitrogen, Catalog No. KH00651).
MCF7 cells were cultured in a DMEM medium supplemented with 10% fatal bovine serum (commercially available from Gibco Life Technologies (US)). Thereafter, the cultured MCF7 cells were put into a 6-well plate with approximately 5×10^5 cells per well, and cultured in an incubator supplied with 5% CO2. Culture media were treated with the derivatives synthesized in the Examples at concentrations of 5, 10 and 50 uM, and then cultured for 24 hours. […] Subsequently, the cells were lysed according to a method presented in the operation manual of the AMPK [pT172] ELISA kit, and 20 μg of a cell lysate was then yielded through protein assay. Thereafter, the AMPK activation effect was obtained by determining a degree of phosphorylation of a 172nd threonine residue (Thr172) of the AMPKα from the cell lysate according to the method presented in the operation manual of the AMPK [pT172] ELISA kit.
(In general: ELISA stands for enzyme-linked immunosorbent assay.)

In a further test the test system is HCT116 cells. The test is described as follows: Effect of inhibiting cancer cell proliferation (MTT) in HCT116 cells. The test is classed as cell-based, human. The following applies: for inhibition at 100 µM: read-out: Cell growth inhibition (%) at 100 μM; for inhibition at 25 µM: read-out: Cell growth inhibition (%) at 25 μM. The source says:
HCT116 cells derived from human colorectal cancer were used, and an effect of inhibiting cancer cell proliferation of the biguanide derivative was confirmed by measuring a concentration value (cell growth inhibition concentration, GIC50) at which cell growth was inhibited by 50% using a 3-(4,5-dimethylthiazol-2-yl)-2,5-diphenyltetrazolium bromide (MTT) reagent.
First, HCT116 cells (purchased from the KCLB) were put on a 96-well plate and cultured in a DMEM medium supplemented with 10% fatal bovine serum (commercially available from Gibco Life Technologies (US)) for 16 hours so that approximately 5,000 cells were counted in each well. Subsequently, to obtain the GIC50 value of each compound, the culture media were treated with 100 μM, 25 μM, 6.25 μM, 1.56 μM or 0.39 μM of the compound, and then cultured for 48 hours. In order to determine whether the cells survived after treatment with the compounds, MTT (commercially available from AMRESCO (US)) was added to the culture media which were then cultured for another 3 hours. Formed formazane crystals were dissolved using dimethyl sulfoxide (DMSO) and the absorbance of the resulting solution was measured at 560 nm. After the 48-hour culture, a ratio of a living cell count on a well plate treated with the compounds synthesized in the Examples to a cell count cultured on a well plate not treated with the compound was indicated as cell viability (%) according to the concentration of each treated compound. The cell viability (%) was used to plot a cell viability curve graph and calculate a concentration (GIC50) value of the compound at which the growth was inhibited by 50%, thereby confirming the inhibition effect of cancer cell proliferation.

Where [1] appears, read: Homo sapiens, HCT-116, 48 h, 100 μM.

Regarding `Cl.N=C(NC(=N)N1CC=CCC1)Nc1cccc(OC(F)(F)F)c1` [Example 30, N1-1,2,3,6-tetrahydropyridine-N5-(3-trifluoromethoxy)phenyl biguanide hydrochloride], in the test on AMPK, the “AMPK activation effect (%) 10 μM” value is 703% and the AC150 came to 0.53 µM. For the same compound, halving of growth with HCT116 cells (Homo sapiens, HCT-116, 48 h) (GI50) required 7.5 µM. In the test on HCT116 cells (setting [1]), the inhibition (as a rule, the relative decrease from the control value, in per cent) at 100 µM came to 99.7%.

`Cl.N=C(NC(=N)N1CC=CC1)Nc1ccc(Br)cc1` [Example 9, N1-1,2-dihydropyrrole-N5-(4-bromo)phenyl biguanide hydrochloride]: in the test with AMPK, the “AMPK activation effect (%) 10 μM” value came to 169%, the “AMPK activation effect (%) 50 μM” value amounted to 371% and the AC150 came out at 9.0 µM. In the test with HCT116 cells (Homo sapiens, HCT-116, 48 h), the GI50 – broadly, the concentration giving 50% growth inhibition – is 28.8 µM. Besides, the inhibition at 100 µM with HCT116 cells (setting [1]) turned out to be 99.5%.

Regarding `CC1CCCCN1C(=N)NC(=N)Nc1ccc(F)c(C(F)(F)F)c1.Cl` (stereo not shown) [Example 78, N1-(2-methyl)piperidine-N5-(4-fluoro, 3-trifluoromethyl)phenyl biguanide hydrochloride], in the test on AMPK, the “AMPK activation effect (%) 5 μM” value was found to be 425%, the “AMPK activation effect (%) 10 μM” value is 565% and the AC150 stood at 0.5 µM. In the test on HCT116 cells (Homo sapiens, HCT-116, 48 h), the GI50 came to 7 µM and the inhibition at 25 µM came out at 100%.

`COc1cccc(NC(=N)NC(=N)N2CC=CCC2)c1.Cl` [Example 41, N1-1,2,3,6-tetrahydropyridine-N5-(3-methoxyl)phenyl biguanide hydrochloride]: in the test on AMPK, the “AMPK activation effect (%) 10 μM” value was determined as 125%, the “AMPK activation effect (%) 50 μM” value stood at 201% and the AC150 is 22.4 µM. Further, the GI50 with HCT116 cells (Homo sapiens, HCT-116, 48 h) was determined as 88.2 µM. Moreover, the inhibition at 100 µM in the test on HCT116 cells (setting [1]) was 55.9%.

Regarding `COc1ccc(NC(=N)NC(=N)N2CC=C(C)C2)cc1.Cl` [Example 22, N1-(3-methyl)-1,2-dihydropyrrole-N5-(4-methoxyl)phenyl biguanide hydrochloride], in the test with AMPK, the “AMPK activation effect (%) 10 μM” value is recorded as 116%, the “AMPK activation effect (%) 50 μM” value came out at 209% and the AC150 turned out to be 24.5 µM. Halving of growth in the test with HCT116 cells (Homo sapiens, HCT-116, 48 h) (GI50) required 18.6 µM. Moreover, the inhibition at 100 µM in the test on HCT116 cells (setting [1]) was 37.1%.

On to “N1-1,2-dihydropyrrole-N5-(4-methyl)phenyl biguanide hydrochloride [Example 50]”, for which, in the test on AMPK, the “AMPK activation effect (%) 10 μM” value is 317%, the “AMPK activation effect (%) 50 μM” value was found to be 440% and the AC150 came to 1.4 µM. Further, the “Cell growth inhibition (%) at 100 μM” value in the test on HCT116 cells (100 μM, 48 hours) amounted to 46.0%. In addition, in the test with HCT116 cells (48 hours), halving of growth (GI50) required 117 µM.

Consider `CC1=CCN(C(=N)NC(=N)NCc2ccc(Cl)c(C(F)(F)F)c2)C1.Cl` [Example 27, N1-(3-methyl)-1,2-dihydropyrrole-N5-(4-chloro, 3-trifluoromethyl)benzyl biguanide hydrochloride], for which, in the test with AMPK, the “AMPK activation effect (%) 10 μM” value amounted to 119%, the “AMPK activation effect (%) 50 μM” value is on record as 316% and the AC150 came out at 13.5 µM. The same compound returned a GI50 in the test on HCT116 cells (Homo sapiens, HCT-116, 48 h) of 33.5 µM. Also, the inhibition at 100 µM in the test on HCT116 cells (setting [1]) was determined as 96.6%.

For the compound `COc1cc(NC(=N)NC(=N)N2CC=CC2)cc(OC)c1.Cl` [Example 45, N1-1,2-dihydropyrrole-N5-(3,5-dimethoxy)phenyl biguanide hydrochloride], in the test on AMPK, the “AMPK activation effect (%) 10 μM” value came to 202%, the “AMPK activation effect (%) 50 μM” value was 299% and the AC150 worked out at 4.8 µM. The same compound registered a GI50 in the test on HCT116 cells (Homo sapiens, HCT-116, 48 h) of 107 µM. Further, the inhibition at 100 µM in the test on HCT116 cells (setting [1]) was found to be 47.2%.

For `Cl.N=C(NCc1ccc(C(F)(F)F)cc1)NC(=N)N1CC=CCC1` [Example 56, N1-1,2,3,6-tetrahydropyridine-N5-(4-trifluoromethyl)benzyl biguanide hydrochloride], in the test with AMPK, the “AMPK activation effect (%) 10 μM” value turned out to be 389%, the “AMPK activation effect (%) 50 μM” value turned out to be 671% and the AC150 worked out at 2.1 µM. For the same compound, in the test on HCT116 cells (Homo sapiens, HCT-116, 48 h), the GI50 amounted to 26.9 µM. Moreover, the inhibition at 100 µM in the test on HCT116 cells (setting [1]) was found to be 97.7%.

Take `CC1CCCCN1C(=N)NC(=N)Nc1ccc(Cl)c(C(F)(F)F)c1.Cl` (stereo not shown) [Example 80, N1-(2-methyl)piperidine-N5-(4-chloro, 3-trifluoromethyl)phenyl biguanide hydrochloride]: in the test on AMPK, the “AMPK activation effect (%) 5 μM” value amounted to 334%, the “AMPK activation effect (%) 10 μM” value is on record as 590% and the AC150 is 1.1 µM. Besides, in the test on HCT116 cells (Homo sapiens, HCT-116, 48 h), the concentration for 50% growth inhibition (GI50) was found to be 6.8 µM and the inhibition at 25 µM is 99.7%.

Turning to `CC1=CCN(C(=N)NC(=N)Nc2ccc(Br)cc2)C1.Cl` [Example 21, N1-(3-methyl)-1,2-dihydropyrrole-N5-(4-bromo)phenyl biguanide hydrochloride], in the test on AMPK, the “AMPK activation effect (%) 10 μM” value is 156% and the AC150 is 11.9 µM. The same compound displayed a GI50 with HCT116 cells (Homo sapiens, HCT-116, 48 h) of 10.4 µM. Besides, in the test with HCT116 cells (setting [1]), the inhibition at 100 µM was found to be 99.4%.

In the case of `Cl.N=C(N)NC(=N)N1CC=CCC1` [Example 61, N1-1,2,3,6-tetrahydropyridine biguanide hydrochloride], in the test with AMPK, the “AMPK activation effect (%) 10 μM” value is 123%, the “AMPK activation effect (%) 50 μM” value is 132% and the AC150 was over 50 µM. The compound further gave a GI50 in the test with HCT116 cells (Homo sapiens, HCT-116, 48 h) of over 100 µM. Further, in the test with HCT116 cells (setting [1]), the inhibition at 100 µM turned out to be 10.5%.

`CCCCCCNC(=N)NC(=N)N1CC=CCC1.Cl` [Example 53, N1-1,2,3,6-tetrahydropyridine-N5-hexyl biguanide hydrochloride]: in the test on AMPK, the “AMPK activation effect (%) 10 μM” value turned out to be 311%, the “AMPK activation effect (%) 50 μM” value is 589% and the AC150 is 2.3 µM. Moreover, halving of growth with HCT116 cells (Homo sapiens, HCT-116, 48 h) (GI50) required 43.7 µM. For the same compound, the inhibition at 100 µM with HCT116 cells (setting [1]) came out at 97.9%.

Turning to `CC1CCCC(C)N1C(=N)NC(=N)Nc1ccc(Cl)cc1.Cl` (stereo not shown) [Example 96, N1-(2,6-dimethyl)piperidine-N5-(4-chloro)phenyl biguanide hydrochloride], in the test on AMPK, the “AMPK activation effect (%) 5 μM” value came to 240%, the “AMPK activation effect (%) 10 μM” value was 395% and the AC150 amounted to 1.8 µM. In the test on HCT116 cells (Homo sapiens, HCT-116, 48 h), growth was halved (GI50) at 10.4 µM and the inhibition at 25 µM was determined as 101%.

Regarding `CC1CCCN(C(=N)NC(=N)NCc2ccc(C(F)(F)F)cc2)C1.Cl` (stereo not shown) [Example 86, N1-(3-methyl)piperidine-N5-(4-trifluoromethyl)benzyl biguanide hydrochloride], in the test with AMPK, the “AMPK activation effect (%) 5 μM” value came out at 147%, the “AMPK activation effect (%) 10 μM” value is given as 330% and the AC150 is 2.3 µM. In the test with HCT116 cells (Homo sapiens, HCT-116, 48 h), it took 27.6 µM to inhibit growth by half (GI50) and the inhibition at 25 µM is 49%.

As to `CC1=CCN(C(=N)NC(=N)Nc2ccc(C(F)(F)F)cc2)C1.Cl` [Example 16, N1-(3-methyl)-1,2-dihydropyrrole-N5-(4-trifluoromethyl)phenyl biguanide hydrochloride], in the test on AMPK, the “AMPK activation effect (%) 10 μM” value came to 398% and the AC150 was 1.7 µM. For the same compound, in the test on HCT116 cells (Homo sapiens, HCT-116, 48 h), the GI50 came to 10.8 µM. For the same compound, the inhibition at 100 µM in the test on HCT116 cells (setting [1]) was 99.3%.

Take `Cl.N=C(NC(=N)N1CC=CCC1)Nc1ccc(OC(F)(F)F)c(F)c1` [Example 34, N1-1,2,3,6-tetrahydropyridine-N5-(3-fluoro, 4-trifluoromethoxy)phenyl biguanide hydrochloride]: in the test on AMPK, the “AMPK activation effect (%) 10 μM” value worked out at 925% and the AC150 amounted to 0.29 µM. For the same compound, in the test on HCT116 cells (Homo sapiens, HCT-116, 48 h), the GI50 amounted to 6.6 µM. Also, the inhibition at 100 µM in the test with HCT116 cells (setting [1]) amounted to 99.4%.

Consider `CC1CCCCN1C(=N)NC(=N)Nc1ccc(C(F)(F)F)cc1.Cl` (stereo not shown) [Example 74, N1-(2-methyl)piperidine-N5-(4-trifluoromethyl)phenyl biguanide hydrochloride], for which, in the test on AMPK, the “AMPK activation effect (%) 5 μM” value came to 199%, the “AMPK activation effect (%) 10 μM” value is 410% and the AC150 turned out to be 2.0 µM. Besides, in the test with HCT116 cells (Homo sapiens, HCT-116, 48 h), the 50% growth inhibitory concentration (GI50) is 8.7 µM and the inhibition at 25 µM came out at 100%.

Turning to `CC1CCCN(C(=N)NC(=N)Nc2ccc(F)cc2)C1.Cl` (stereo not shown) [Example 67, N1-(3-methyl)piperidine-N5-(4-fluoro)phenyl biguanide hydrochloride], in the test on AMPK, the “AMPK activation effect (%) 5 μM” value is reported as 258%, the “AMPK activation effect (%) 10 μM” value was 427% and the AC150 is 1.6 µM. Also, in the test with HCT116 cells (Homo sapiens, HCT-116, 48 h), halving of growth (GI50) required 9.2 µM and the inhibition at 25 µM came to 100%.
